These results are taken from US7186855B2, “Prodrugs of GABA analogs, compositions and uses thereof” (Xenoport, Inc., priority 2001, dated 2007).

A short description of data set [1]: Uptake of gabapentin following intracolonic administration of gabapentin or gabapentin prodrugs in rats. Format: in vivo. The conditions noted are these: dose equivalent to 25 mg gabapentin per kg. On the procedure:
Sustained release oral dosage forms, which release drug slowly over periods of 6–24 hours, generally release a significant proportion of the dose within the colon. […] This experiment was conducted to assess the suitability of gabapentin prodrugs for use in an oral sustained release dosage form.
Rats were obtained commercially and were pre-cannulated in the both the ascending colon and the jugular vein. Animals were conscious at the time of the experiment. All animals were fasted overnight and until 4 hours post-dosing. Gabapentin or gabapentin prodrugs (59), (63), (69), (72), (77), (79), (85), (117) and (126) were administered as a solution (in water or PEG 400) directly into the colon via the cannula at a dose equivalent to 25 mg of gabapentin per kg. Blood samples (0.5 mL) were obtained from the jugular cannula at intervals over 8 hours and were quenched immediately by addition of acetonitrile/methanol to prevent further conversion of the prodrug. Blood samples were analyzed as described below.
• 1. In blank 1.5 mL eppendorf tubes, 300 μL of 50/50 acetonitrile/methanol and 20 μL of p-chlorophenylalanine was added as an internal standard. • 2. […]
An API 2000 LC/MS/MS spectrometer equipped with Shidmadzu 10DVp binary pumps and a CTC HTS-PAL autosampler were used in the analysis. […] The peaks were integrated using Analyst 1.1 quantitation software.

In the next data set the test system is mouse. The conditions noted are these: cited from earlier work.

`CC(OC(=O)NCC1(CC(=O)O)CCCCC1)OC(=O)C(C)C` (stereo not drawn) [(77), 1-{[(α-Isobutanoyloxyethoxy)carbonyl]aminomethyl}-1-Cyclohexane Acetic Acid]: in data set [1], the “gabapentin AUC relative to colonic administration of gabapentin itself” value is given as “greater than 10 fold” and the “maximum plasma concentration of gabapentin (Cmax) relative to colonic administration of gabapentin itself” value is listed as “greater than 10 fold”.
For `NCC1(CC(=O)O)CCCCC1` [gabapentin], the “toxicity (LD50, mouse)” value in the data set with mouse was “more than 8000 mg/kg”.
As for `O=C1CC2(CCCCC2)CN1` [lactam (5)], the “toxicity (LD50, mouse)” value in the data set on mouse was 300 mg/kg.
